# Reference: US20230405063A1, “USE OF PROBIOTIC COMPONENT AND PHARMACEUTICAL COMPOSITION CONTAINING PROBIOTIC COMPONENT” (CHENGDU KUACHANGAOPU MEDICAL TECHNOLOGY CO., LTD., priority 2020, published 2023)
# Key:
# Format in all cases: in vivo
# [1] = test system: mouse breast cancer 4T1 cells; assay: Middle-aged and elderly patient model, 4T1 tumors in eight-month-old mice, r′3d/r′21d (Example 14, Table 19); conditions: single intratumoral injection, 50 l/mouse; for Tumor inhibition rate r′3: day 3 after administration; for Tumor inhibition rate r′21: day 21 after administration
# Text: (§1) V=0.5×a×b^2, wherein a and b represent the length and width of the local lesion, respectively; Volume of the local lesion (e.g. tumor):
# (§2) Local lesion (e.g., tumor) proliferation rate (R)=TV/CV×100, wherein TV and CV are the local lesion volumes in the study group and negative control group, respectively;
# (§3) The method for determining the effect of combined drug administration in animal experiments was Burgi method (Burgi Y. Pharmacology; Drug actions and reactions. Cancerres. 1978, 38(2), 284-285). The Burgi method was modified by Zhengjun JIN (Zhengjun JIN, Equal probability and curve and “Q50”, Journal of the Second Shanghai Medical College; 1981, 1, 75-86) with q calculated as: q=EA+B/(EA+EB−EA×EB). In the following examples of the present invention, the combinational pharmaceutical efficacies (drug efficacies) of drug A and drug B co-administration was determined by ratio q of actual pharmaceutical efficacy (drug efficacy)/theoretical pharmaceutical efficacy (drug efficacy) according to Zhengjun JIN method, as follows.
# Eight-month-old mice were used as experimental subjects in the middle-aged and elderly patient model, 0.5×10^5 mouse breast cancer 4T1 cells/mouse were injected into the right axilla subcutaneously for transplantation tumor modeling, and the mean tumor volume of successfully modeled nude mice was 117.3 mm^3. The model animals were randomly divided into 18 groups. Each group was administered once by intratumoral injection according to the drug grouping in Table 19 with an injection volume of 50 l/mouse. The local lesion volume (V) was measured on day 3 and day 21 after drug administration, and the tumor inhibition rates (r′3d, r′21d) were calculated at each of time points relative to the negative control group, and the results were shown in the following Table. The drugs to be administered were prepared according to the conventional preparation method for aqueous solution or according to the preparation method in Example 1. The actual/expected ratio q3d for short-term drug efficacy and the actual/expected ratio […] for medium- and long-term drug efficacy were calculated based on the drug efficacies (r′3d, r′21d) at different times (day 3, day 21), respectively.
# breast cancer 4T1 cells = assay: Short-term tumor inhibition in 4T1 tumor-bearing BALB/c mice (Example 9, Table 14); conditions: dosed twice, 7th day after final administration
# Text: as §3
# BALB/c mice were used as experimental subjects, and breast cancer 4T1 cells were used as modeling cells. 0.5×10^6 cells/mouse were injected into the right axilla subcutaneously for transplantation tumor modeling, and the average tumor volume of successfully modeled nude mice was 160.1 mm^3. The model animals were randomly divided into 21 groups, and the drugs were administered by intravenous injection (series A) and intratumoral injection (series B) according to the drugs and doses in Table 14, respectively. All the drugs administered were aqueous liquids, which were formulated according to the method of Example 1. Each group was dosed twice. On the 7th day after final administration, the animals were euthanized, and the tumor tissues were taken out after dissection to determine the tumor weight, and the tumor inhibition rates rA and rB were calculated relative to the corresponding negative control groups in series A and series B.
# [2] = test system: gastric tumor cells (BGC823); assay: Tumor inhibition in BGC823 tumor-bearing nude mice (Example 5, Table 8); conditions: intratumoral injection once, 150 μl/mouse, 7th day
# Text: as §3
# Nude mice were used as experimental subjects, and gastric tumor cells (BGC823) were used as modeling cells, 1×10^5 cells/mouse were injected into the right axilla subcutaneously for transplantation tumor modeling, and the average tumor volume of successfully modeled nude mice was 164.4 mm^3. The model animals were randomly divided into 14 groups, and the drugs according to the pharmacological constitutions in Table 8 were administered via intratumoral injection. Each group was dosed once with an injection volume of 150 μl/mouse; wherein the pharmaceutical compositions of groups 5, 11 were semi-fluid, the pharmaceutical compositions of other groups are liquid. On the 7th day after drug administration, the animals were euthanized, and after dissection, the tumor tissue was taken out to determine the tumor weight, and the tumor inhibition rate (r) was calculated relative to the negative control group. Further, the actual efficacy/expected efficacy ratio q of a drug could also be calculated according to the therapeutic effect (tumor inhibition rate).
# [3] = test system: mouse embryonic fibroblasts 3T3; assay: Local lesion inhibition in 3T3 fibroblast nodule model in nude mice (Example 6, Table 9); conditions: dosed twice at interval of 2 days, 150 μl/mouse/time, 7th day after final administration
# Text: as §1, §2, §3
# Nude mice were used as experimental subjects, and mouse embryonic fibroblasts 3T3 were used as modeling cells. 2×10^4 cells/mouse were injected into the right axilla subcutaneously for transplantation nodule modeling, and the average volume of tumor-like nodules in successfully modeled nude mice was 171.5 mm^3. The model animals were randomly divided into […], and the drugs were administered according to Table 9. Each group except for groups 21-24 were administered by intraperitoneal injection, intra-nodal injection. The drugs used in groups 21-24 were a composition of non-local administration dosage form (dosage form that a probiotic component and a co-administration substance could be administered separately). The administration route of series A was: intraperitoneal injection of probiotic component+intra-nodal injection of co-administration substance; and the administration route of series B was: intraperitoneal injection of co-administration substance+intra-nodal injection of probiotic component. Each group was dosed twice at an interval of 2 days, with an injection volume of 150 μl/mouse/time. On the 7th day after the final administration, the volume (V) of local lesions comprising fibroblasts was measured, and the relative local lesion inhibition rates (r′A, r′B) were calculated for series A and series B, respectively, as compared with the negative control group. Further, the actual drug efficacy/expected efficacy ratio q could also be calculated according to the therapeutic effect (local lesion inhibition rate).
# [4] = test system: human hepatoma cells (HepG2); assay: Tumor inhibition in HepG2 tumor-bearing nude mice, probiotic component/methylene blue (Example 7, Table 11); conditions: dosed twice, interval 7 days, 150 μl/mouse/time, 7th day after final administration, probiotic component = inactivated Saccharomyces cerevisiae
# Text: as §3
# Nude mice were used as experimental subjects, and human hepatoma cells (HepG2) were used as modeling cells. […] The model animals were randomly divided into 13 groups, and the drugs were administered according to Table 11. […] Each group was dosed twice with an interval of 7 days, and the injection volume was 150 μl/mouse/time. On the 7th day after final administration, the animals were euthanized, and the tumor tissues were taken out after dissection to determine the tumor weight, and the tumor inhibition rate was calculated relative to the negative control group.
SMILES,Tumor inhibition rate r′3 [1],Tumor inhibition rate r′21 [1],tumor inhibition rate rA (breast cancer 4T1 cells; series A: intravenous injection),tumor inhibition rate rB (breast cancer 4T1 cells; series B: intratumoral injection),Tumor inhibition rate r [2],Tumor weight (x ± s) [2],"V (x ± s), volume of local lesions, series B ([3]; intra-nodal injection)","V (x ± s), volume of local lesions, series A ([3]; intraperitoneal injection)",Tumor inhibition rate [4],Tumor weight (x ± s) [4],Tumor weight (x ± s) ([4]; listed as 0.15% methylene blue),Tumor inhibition rate ([4]; listed as 0.50% methylene blue),Tumor weight (x ± s) ([4]; listed as 0.50% methylene blue),Tumor inhibition rate ([4]; listed as 3% methylene blue),Tumor weight (x ± s) ([4]; listed as 3% methylene blue)
OC[C@H]1OC(O)[C@H](O)[C@@H](O)[C@@H]1O (some centres unmarked) [20% glucose aqueous solution],3.1%,4.3%,,,,,,,,,,,,,
OC[C@H]1OC(O)[C@H](O)[C@@H](O)[C@@H]1O (some centres unmarked) [30% glucose aqueous solution],20.8%,8.2%,,,,,,,,,,,,,
"CN(C)c1ccc2nc3ccc(=[N+](C)C)cc-3sc2c1 [1% methylene blue, methylene blue]",,,3.7%,13.4%,12.5%,0.197 ± 0.062 g,1.020 ± 0.210 cm^3,1.288 ± 0.205 cm^3,26.4%,0.186 ± 0.096 g,0.227 ± 0.107 g,17.7%,0.208 ± 0.115 g,71.1%,0.073 ± 0.033 g
